Legend:
benzodiazepine receptor [1] = experiment: Effect on current in xenopus oocyte expressing the benzodiazepine receptor (mRNA); assay type: cell-based
Text: The effect of the lactone on the benzodiazepine receptor expressed was first expressed, using the corresponding messenger RNA, in xenopus oocyte.

benzodiazepine receptor [2] = experiment: In vitro binding to benzodiazepine receptor, displacement of 3H-flunitrazepam, rat brain cortical membranes
benzodiazepine receptor [3] = experiment: In vivo behavior and antagonism of diazepam sedation in mice; conditions: sc
Description: The antagonist properties of the lactone were also assessed in vivo in mice.

[4] = anxiolytic, anti-convulsant and the like; cited from earlier work
[5] = test system: learning and information retention; conditions: man; cited from earlier work
[6] = test system: convulsions caused by other agents such as pentylenetetrazole; conditions: cited from earlier work
[7] = biological target: central receptors for benzodiazepines; conditions: in vitro, rat brain; read-out: IC50 binding to central receptors for benzodiazepines; cited from earlier work
learning and memory = conditions: cited from earlier work

What does the source list for `O=C1OC(CO)c2c1ncc1[nH]c3ccccc3c21` (stereo not drawn) [Compound No. 3, 10-Hydroxymethylbutanolide[2.3-]-β-Carboline]?
effect on GABA-generated current in oocyte (benzodiazepine receptor [1]; lactone (10^6 M [sic]) simultaneously with 10^5 M (so in the source) GABA): no increase or decrease was observed in the current; inhibition of the increase in current generated by diazepam (benzodiazepine receptor [1]; lactone (10^6 M [sic]), diazepam (10^6 M [sic])): inhibits substantially the increase in the current; receptor profile in oocyte test (benzodiazepine receptor [1]; with GABA): behaves, in this test, like an antagonist of the benzodiazepine receptor; affinity relative to diazepam (20 nM) (benzodiazepine receptor [2]; times higher than diazepam): 100 times; affinity relative to β-CCE (4 nM) (benzodiazepine receptor [2]; times higher than β-CCE): 20 times; convulsant or sedative effect in mice (benzodiazepine receptor [3]; 5 mg/kg): neither convulsant nor sedative; effect on behavior of mice (benzodiazepine receptor [3]; 5 mg/kg): produces no effect on their behavior; antagonism of sedation caused by diazepam (benzodiazepine receptor [3]; compound 5 or 10 mg/kg, diazepam 7.5 mg/kg): completely avoided

For `CCOC(=O)c1ncc2[nH]c3cccc(OCc4ccccc4)c3c2c1COC` [ZK 91296], which “properties in vivo compared with diazepam” value [4] is on record?
Its value is “properties similar to those of diazepam in vivo”.

Which “properties in vivo compared with diazepam” value [4] does the source give for `CCOC(=O)c1ncc2[nH]c3ccc(OCc4ccccc4)cc3c2c1COC` [ZK 93423] here?
The value was “properties similar to those of diazepam in vivo”.

Which “learning and information retention” value [5] does the source give for `CCOC(=O)c1ncc2[nH]c3cccc(OC(C)C)c3c2c1C` [ZK 93426] here?
The value was “improve learning and information retention in man”.

Which “in vivo pharmacological effects compared with benzodiazepines” value ([6]; in vivo) does the source give for `CCOC(=O)c1cc2c(cn1)[nH]c1ccccc12` [β-CCE, ethyl ester of β-carboline-3-carboxylic acid] here?
The value was “opposed to those of benzodiazepines”.

What about the proconvulsant effect ([6]; mice) of the same compound?
The proconvulsant effect was “proconvulsant in mice which facilitates the convulsions caused by other agents such as pentylenetetrazole”.

And the IC50 [7]?
Its IC50 is 4 nM.

With `COC(=O)c1cc2c(cn1)[nH]c1ccccc12` [β-CCM] as the compound, how does the “effect on learning and memory” value (learning and memory; in vivo) read?
Its value is “positive effect on learning and memory”.

And the convulsant activity (learning and memory; prevented testing in man)?
The convulsant activity was “highly convulsant activity”.

From patent US5258385A, “β-Carboline-derived compounds, lamchart benzodiazepine-receptor ligands, having an inverse agonist and antagonist effect on benzodiazepines, and drugs containing them” (Centre National de la Recherche Scientifique (CNRS), priority 1991, dated 1993)
